Test results published in US20230138395A1, “PHARMACEUTICAL COMPOSITIONS OF A THERAPEUTIC POLYENE MACROLIDE AND METHODS OF THEIR USE” (priority 2020, published 2023).
Values after ≈ are worked out from the molar mass of the structure shown. Values joined by “and” are separate entries in the source; they are usually repeats but may differ in a detail not shown here. Equal entries are not always repeated.

Tests used:
C. glabrata strains [1] = experiment: MIC testing (CLSI M27-A3); format: cell-based; design: MIC: unit not given beside the values; details: for MIC50 / MIC90: C. glabrata; for MIC50: inhibits 50% of strains; for MIC90: inhibits 90% of strains; for MIC: individual C. glabrata strain with elevated MICs to non-polyene comparators (Table 22)
C. glabrata strains [2] = experiment: MFC determination; format: cell-based; design: MFC: unit not given beside the values; details: for MFC Range: C. glabrata strains; for MFC Range / MFC: in µg/mL; for MFC50 / MFC90: C. glabrata; for MFC50: kills 50% of strains; for MFC90: kills 90% of strains; for MFC: individual C. glabrata strain with elevated MICs to non-polyene comparators (Table 22)
C. krusei strains = experiment: MFC determination; format: cell-based; details: for MFC50 / MFC90: C. krusei; for MFC50: kills 50% of strains; for MFC90: kills 90% of strains
C. tropicalis = experiment: MIC testing (CLSI M27-A3); format: cell-based; details: for MIC Range: C. tropicalis strains, in µg/mL; for MIC50 / MIC90: C. tropicalis; for MIC50: inhibits 50% of strains; for MIC90: inhibits 90% of strains
all Candida strains [3] = experiment: MIC testing (CLSI M27-A3), summary; format: cell-based; details: for MIC50: inhibits 50% of strains; for MIC90: inhibits 90% of strains
all Candida strains [4] = experiment: MFC determination, summary; format: cell-based; details: for MFC50: kills 50% of strains; for MFC90: kills 90% of strains
Cr. neoformans strains = experiment: MIC testing (CLSI M27-A3, YNB, 72 h); format: cell-based, Cryptococcus neoformans; details: for MIC Range: Cr. neoformans strains, 72 h, in µg/mL; for MIC50 / MIC90: Cr. neoformans; for MIC50: inhibits 50% of strains; for MIC90: inhibits 90% of strains
[5] = tested on: individual Aspergillus spp. (Table 13, species not given); experiment: MFC determination, Table 13; format: cell-based; details: Aspergillus sp. of Table 13; for MFC50: kills 50% of strains; for MFC90: kills 90% of strains
[6] = tested on: individual Aspergillus spp. (Table 14, species not named); experiment: MIC testing (CLSI M38-A2), Table 14; format: cell-based; details: Aspergillus sp. of Table 14, caspofungin read as MEC; for MIC50: inhibits 50% of strains; for MIC90: inhibits 90% of strains
[7] = tested on: individual Aspergillus spp. (Table 14, species not named); experiment: MFC determination, Table 14; format: cell-based; details: Aspergillus sp. of Table 14; for MFC50: kills 50% of strains; for MFC90: kills 90% of strains
Fusarium strains = experiment: MIC testing (CLSI M38-A2), Table 17; format: cell-based, Fusarium spp.; details: Fusarium strains (Table 17); for MIC50: inhibits 50% of strains; for MIC90: inhibits 90% of strains
[8] = tested on: Fusarium strains (Table 18); experiment: MFC determination, Table 18; format: cell-based, Fusarium spp.; details: for MFC50: kills 50% of strains; for MFC90: kills 90% of strains
[9] = tested on: Blastomyces dermatitidis, Coccidioides immitis, and Histoplasma capsulatum strains; format: cell-based; details: dimorphic fungal isolates; in µg/mL
C. albicans SC5314 = experiment: In vitro activity (MIC) against the infecting strain, Example 18; format: cell-based, Candida albicans; details: Candida albicans, read-out: MIC
Candida albicans SC5314 = experiment: Disseminated candidiasis in immunocompromised murine model (BALB/c mice): tissue fungal burden; format: in vivo; details: Experiment I, 7 days
Paecilomyces strains = experiment: MFC determination; format: cell-based, Paecilomyces spp.; details: Paecilomyces strains (5)

`C[C@@H](c1ncncc1F)[C@](O)(Cn1cncn1)c1ccc(F)cc1F` [Voriconazole, voriconazole] was tested, and the MIC50 (C. glabrata strains [1]) was 0.25 µg/mL (≈ 0.716 µM), the MIC90 (C. glabrata strains [1]) was 4 µg/mL (≈ 11.5 µM) and the MIC (C. glabrata strains [1]; listed as Vor) was 1 (3×) and >32 and 0.25 and 2. The “MFC Range” value (C. glabrata strains [2]) was over 32, the MFC50 (C. glabrata strains [2]) was over 32 µg/mL and the MFC90 (C. glabrata strains [2]) was over 32 µg/mL. It also gave an MFC (C. glabrata strains [2]) of over 32, an MFC50 (C. krusei strains) of over 8 µg/mL and an MFC90 (C. krusei strains) of over 8 µg/mL. The “MIC Range” value (C. tropicalis) was <0.06-1, the MIC50 (C. tropicalis) was 0.06 µg/mL (≈ 0.172 µM) and the MIC90 (C. tropicalis) was 0.06 µg/mL (≈ 0.172 µM). It also gave an MIC50 (all Candida strains [3]) of 0.06 µg/mL (≈ 0.172 µM), an MIC90 (all Candida strains [3]) of 1 µg/mL (≈ 2.86 µM) and an MFC50 (all Candida strains [4]) of over 32 µg/mL. The MFC90 (all Candida strains [4]) was over 32 µg/mL, the “MIC Range” value (Cr. neoformans strains) was <0.06-0.25 and the MIC50 (Cr. neoformans strains) was under 0.06 µg/mL. For the same compound, the MIC90 (Cr. neoformans strains) was 0.125 µg/mL (≈ 0.358 µM), the MFC50 [5] was 8 µg/mL (≈ 22.9 µM) and the MFC90 [5] was over 8 µg/mL. The “MIC Range” value ([6]; in µg/mL) was 0.06-8, the MIC50 [6] was 1 µg/mL (≈ 2.86 µM) and the MIC90 [6] was 4 µg/mL (≈ 11.5 µM). It also gave an MFC50 [7] of over 8 µg/mL, an MFC90 [7] of over 8 µg/mL and an MIC50 (Fusarium strains) of 16 µg/mL (≈ 45.8 µM). For the same compound, the MIC90 (Fusarium strains) was over 32 µg/mL, the MFC50 [8] was over 16 µg/mL and the MFC90 [8] was over 16 µg/mL. For the same compound, the “MIC Range” value [9] was <0.03-0.125, the MIC (C. albicans SC5314) was 0.008 µg/mL (≈ 0.0229 µM) and the “Brain tissue fungal burden, Mean log CFUs ± the standard deviation” value (Candida albicans SC5314; 4 mg/kg i.v. twice a day) was 3.42 ± 2.30 log CFUs. The “Kidney tissue fungal burden, Mean log CFUs ± the standard deviation” value (Candida albicans SC5314; 4 mg/kg i.v. twice a day) was 3.45 ± 1.15 log CFUs.

`OC(Cn1cncn1)(Cn1cncn1)c1ccc(F)cc1F` [Fluconazole, fluconazole] was tested, and the MIC50 (C. glabrata strains [1]) was 8 µg/mL (≈ 26.1 µM), the MIC90 (C. glabrata strains [1]) was over 64 µg/mL and the MIC (C. glabrata strains [1]; listed as Flu) was 32 and 2 and >64 (2×) and 8 and 64. The “MFC Range” value (C. glabrata strains [2]) was over 64, the MFC50 (C. glabrata strains [2]) was over 64 µg/mL and the MFC90 (C. glabrata strains [2]) was over 64 µg/mL. The MFC (C. glabrata strains [2]) was over 64, the “MFC Range” value (C. krusei strains; C. krusei strains, in µg/mL) was over 64 and the MFC50 (C. krusei strains) was over 64 µg/mL. For the same compound, the MFC90 (C. krusei strains) was over 64 µg/mL, the MFC (C. krusei strains; individual C. krusei strain with elevated MICs to non-polyene comparators (Table 22)) was over 64 µg/mL and the “MIC Range” value (C. tropicalis) was 0.25-2. The MIC50 (C. tropicalis) was 0.25 µg/mL (≈ 0.816 µM), the MIC90 (C. tropicalis) was 0.5 µg/mL (≈ 1.63 µM) and the MIC50 (all Candida strains [3]) was 0.5 µg/mL (≈ 1.63 µM). For the same compound, the MIC90 (all Candida strains [3]) was over 32 µg/mL, the MFC50 (all Candida strains [4]) was over 32 µg/mL and the MFC90 (all Candida strains [4]) was over 32 µg/mL. The “MIC Range” value (Cr. neoformans strains) was <0.06-16, the MIC50 (Cr. neoformans strains) was 2 µg/mL (≈ 6.53 µM) and the MIC90 (Cr. neoformans strains) was 8 µg/mL (≈ 26.1 µM). For the same compound, the MFC Range [5] was 64 µg/mL (≈ 209 µM), the MFC50 [5] was 64 µg/mL (≈ 209 µM) and the MFC90 [5] was 64 µg/mL (≈ 209 µM). The MIC50 [6] was over 64 µg/mL, the MIC90 [6] was over 64 µg/mL and the MFC Range [7] was over 64 µg/mL. For the same compound, the MFC50 [7] was over 64 µg/mL, the MFC90 [7] was over 64 µg/mL and the MIC50 (Fusarium strains) was over 64 µg/mL. It also gave an MIC90 (Fusarium strains) of over 64 µg/mL, an MFC Range [8] of over 32 µg/mL and an MFC50 [8] of over 32 µg/mL. The MFC90 [8] was over 32 µg/mL, the MFC Range (Paecilomyces strains) was over 64 µg/mL and the MIC (C. albicans SC5314) was 0.25 µg/mL (≈ 0.816 µM). The “Brain tissue fungal burden, Mean log CFUs ± the standard deviation” value (Candida albicans SC5314; 6 mg/kg i.v.) was 1.28 ± 1.95 log CFUs and the “Kidney tissue fungal burden, Mean log CFUs ± the standard deviation” value (Candida albicans SC5314; 6 mg/kg i.v.) was 3.87 ± 1.53 log CFUs.
